Results on one compound are retold here after patent US12433961B2, “Near-infrared fluorescent probe specifically targeting tumors as well as synthesis method and use thereof” (NANJING NUOYUAN MEDICAL INSTRUMENT CO. LTD, priority 2022, dated 2025).

The structures appear in SMILES notation.

For this data set, the system named is colorectal cancer HT29 subcutaneous tumor. Briefly: In-vivo near-infrared fluorescence imaging in subcutaneous HT29 tumor-bearing mouse model. To be noted: HT29 tumor-bearing mice, 30 nmol tail vein, imaging 0 h-48 h. The method, then: In a subcutaneous tumor HT29 tumor-bearing mouse model, YQ-H (30 nmol, dissolved with 100 μL of normal saline for injection) series probes respectively underwent tail vein administration, fluorescence imaging was respectively photographed at different time points (0 h, 6 h, 12 h, 24 h and 48 h in sequence) by small animal living imaging CCD.

In the case of `CC1(C)C(/C=C/C2=C(SCCC(=O)NCCCCCC(=O)N(CCS(C)(=O)=O)Cc3ccc(-c4ccc5ncnc(Nc6ccc(OCc7cccc(F)c7)c(Cl)c6)c5c4)o3)C(=C/C=C3/N(CCCS(=O)(=O)O)c4ccc(S(=O)(=O)O)cc4C3(C)C)/CCC2)=[N+](CCCS(=O)(=O)O)c2ccc(S(=O)(=O)[O-])cc21` [YQ-H-03], the “fluorescence signals in liver” value is recorded as “strong fluorescence signals in liver” and the tumor targeting effect entry is given as “a certain tumor targeting effect”.
